# Test results as given in patent publication US5814599A, “Transdermal delivery of encapsulated drugs” (Massachusetts Insitiute of Technology, priority 1995, dated 1998).
# Read-outs that look alike come from different tables or passages of the source.
# B1: γ-interferon (protein, UniProt P01579 24-161, looked up)
# Interferon gamma: QDPYVKEAENLKKYFNAGHSDVADNGTLFLGILKNWKEESDRKIMQSQIVSFYFKLFKNFKDDQSIQKSVETIKEDMNVKFFNSNKKKRDDFEKLTNYSVTDLNVQRKAIHELIQVMAELSPAAKTGKRKRSQMLFRG
# notes: γ-interferon (2500 U/ml, Genzyme Corp.), molecular weight 17,000 D
# Key:
# [1] = Transdermal glucose extraction by sonophoresis in vitro; format: in vitro ADME, human; conditions: for glucose concentration attained in the donor compartment: 10 minutes sonophoresis; for glucose concentration in the donor compartment as percent of that in the receiver compartment: 20 KHz, 125 mW/cm^2, continuous
# Protocol: Transdermal transport of a ^14 C labeled (New England Nuclear) as well as non-labeled (Sigma Chemicals) was studied in the presence as well as in the absence of low-frequency ultrasound. The permeability experiments were performed in vitro using human cadaver skin obtained from local hospitals. […] The Franz diffusion cell consists of two compartments, the donor and the receiver compartments, with the stratum comeum facing the donor compartment. […] The donor and receiver compartments were then clamped. The receiver compartment was filled Phosphate Buffer Saline (PBS, phosphate concentration=0.01M, NaCl concentration=0.137M) (Sigma Chemicals Co.) The donor compartment was filled with a solution of either radiolabelled glucose (1 mCi/ml) or non-labeled glucose (concentration in the range of 50 mg/dL to 300 mg/dL) in separate experiments. The concentration of the permeant in the receiver compartment was measured every 5 minutes using a scintillation counter (model 2000 CA, Packard) in the case of radiolabelled glucose and using a commercially available kit (Sigma Chemicals) in the case of unlabeled glucose.
# Ultrasound was applied using a sonicator (VCX 400, Sonics and Materials) operating at a frequency of 20 KHz. The ultrasound intensity was measured using a hydrophone (Model 8106, Bruel and Kjaer).
# Additional experiments were performed to assess whether the amount of glucose transported by sonophoresis is proportional to the glucose concentration in the […]. In separate experiments, glucose concentration in the receiver solution was varied from 50 mg/dL to 350 mg/dL (typical variation in the blood glucose level of a diabetic patient) and performed sonophoresis using ultrasound (20 KHz, 125 mW/cm^2, continuous) for 10 minutes. […] The line shown in FIG. 3B represents the best fit.
# [2] = system: hairless rats; test: Transdermal glucose extraction by sonophoresis in vivo; design: species or system rat; conditions: 20 KHz, 62.5, continuous, 1 minute
# Protocol: In vivo experiments were performed to assess the efficacy of sonophoresis across living skin. […] The hairless rats were anesthetized with a mixture of ketamine (60 mg/kg) and xylazine (10 mg/kg). After about an hour in anesthesia, a flanged glass cylinder (Crown Glass Company, diameter 20 mm, height 2 cm) was glued on the rat's back using a minimal amount of superglue (Permabond International) or vacuum grease (Dow Chemicals) on the outer edge of the flange. The center of the cylinder was located about 3 cm from the rear end of the rat. This particular site was chosen to avoid application of ultrasound directly on a sharp bone close to the body surface, which otherwise might have caused damage to the blood capillaries near the edge of the bone. The cylinder was filled with PBS (phosphate concentration=0.01M, NaCl concentration=0.137M) (Sigma Chemicals Co.). […] The concentration of glucose in PBS was measured using an assay kit (Sigma Chemicals).
# [3] = Protocol: (§1) Materials and methods: In vivo as well as in vitro experiments were performed to study the effect of low-frequency ultrasound on the transport of insulin across the skin. In vitro experiments were performed using human cadaver skin. The skin was heat stripped by keeping it in water at 60° C. for two minutes followed by the removal of the epidermis. It was then stored at 4° C. in a humidified chamber. A piece of epidermis was taken out from the chamber prior to the experiments and was mounted on the Franz diffusion cell (Crown Bioscientific Co.) which consists of two compartments, the donor and the receiver compartment. […] The human cadaver epidermis (separated from the dermis by heat-treatment) is mounted between the two compartments and is supported by a Nylon mesh (Tetko Inc.) to avoid any damage. The skin was supported by a nylon mesh (Tetko Inc.) in order to a mimic the fact the skin in vivo is supported by mechanically strong dermis. The compartments were then clamped together. The receiver compartment was filled with 2%. BSA (Sigma Chemicals) solution in PBS (Sigma Chemicals) and the donor solution was filled with 100 U/ml solution of human recombinant insulin (Humulin Regular). The ultrasound intensity, I, (Spatial Average Temporal Peak) was calculated from the values of the acoustic pressure amplitude, P, measured using a hydrophone (Bruel and Kjaer) using the equation, I=P^2 /2.rho.c, where .rho. is the water density (1 gm/ml), and c is the velocity of ultrasound in water [1500 m/s].
# [4] = In vitro skin permeability to proteins in the presence of ultrasound (Franz diffusion cell); format: in vitro ADME, human
# Protocol: To assess whether application of ultrasound enhances transdermal protein flux, the skin permeability to these proteins in the presence of ultrasound in vitro across human cadaver epidermis in a Franz Diffusion Cell (Crown Glass Company) was measured. […] The concentration of proteins in the receiver compartment was measured every hour either by RIA or ELISA. The insulin concentration in the receiver compartment was measured every hour by Radioimmuno Assay (performed at Linco Research Inc., St. Charles). The γ-interferon concentration was measured using ELISA methods developed by Endogen Inc, and the erythropoeitin concentration was measured by ELISA (performed at ARUP, Salt Lake City). Skin permeabilities to proteins were calculated using the transdermal fluxes measured during the first hour. The transdermal flux can be calculated using the equation, J=DM/.increment.t, where .increment.M is the amount of protein transported per unit skin area during time .increment.t. The skin permeabilities, P, can be calculated from the transdermal flux, J, during the first hour of ultrasound application using the equation, P=J/.increment.C, where .increment.C is the concentration difference across the skin.
# [5] = remark: listed apart in the source
# Protocol: as §1
# Ultrasound was turned ON at a frequency of 20 KHz, an intensity varying in the range of 0 to 1 W/cm^2 and 10% duty cycle. Samples (200 μl) were taken from the receiver compartment every hour to measure the concentration of insulin in the receiver compartment. The samples were immediately frozen and were stored at -20° C. till they were analyzed by RIA (Linco Research Co.). Ultrasound was typically applied for 4 hours and was then turned OFF. Transdermal insulin flux was followed for next two hours.
# [6] = diabetic hairless rats
# [7] = system: hairless rats; test: In vivo insulin sonophoresis, blood glucose level of normal hairless rats; conditions: for amount of insulin delivered: 225 mW/cm^2, area 3 cm^2; for blood glucose level after ultrasound exposure: normal rats, from about 250 mg/dl
# Protocol: Materials and Methods: In vivo experiments were performed using hairless rats (Charles River). The rats were kept in quarantine to insure good health. On the day of experiment, they were taken out of the cages, anesthetized using a mixture of ketamine (90 mg/kg) and xylazine (10 mg/kg). After about an hour into anesthesia, a glass chamber was glued to the back of the rat using superglue (Permeabond). The glass chamber was filled with 100 U/ml solution of insulin and ultrasound (frequency of 20 KHz, intensity in the range of 0 to 1 W/cm^2, 100 msec pulses applied every second) was applied. The blood glucose level was measured every 30 minutes. Ultrasound was typically turned OFF after 1 hour, although the measurements of the blood glucose were continued for the next three hours.
# To estimate the amount of insulin penetrating the hairless rat skin during sonophoresis at the various intensities reported in FIG. 2A, various known amounts of insulin in the range of 0 to 1 U subcutaneously (most commonly used method of insulin administration today) in normal rats. The blood glucose levels of these rats were then compared with those of the normal rats undergoing sonophoresis.
# In order to estimate the dependence of the amount of insulin delivered on ultrasound exposure time (in vivo), insulin-sonophoresis experiments (20 KHz, […], 100 msec pulses applied every second) were performed on normal rats for different exposure times in the range of 1 minute to 1 hour.
# [8] = system: diabetic hairless rats; test: In vivo insulin sonophoresis, blood glucose level of diabetic hairless rats; design: species or system rat; conditions: in 30 minutes, 20 KHz
# Protocol: The blood glucose level was measured every 30 minutes.
# [9] = within 2 hours after turning ultrasound OFF
molecule,measurement,setting,value
O=C[C@H](O)[C@@H](O)[C@H](O)[C@H](O)CO [glucose],glucose concentration attained in the donor compartment,[1]; receiver compartment 50 mg/dL,0.5 mg/dL
same,glucose concentration attained in the donor compartment,[1]; receiver compartment 350 mg/dL,6.5 mg/dL
same,glucose concentration in the donor compartment as percent of that in the receiver compartment,[1]; after 5 minutes of sonophoresis,about 0.5%
same,glucose concentration in the donor compartment as percent of that in the receiver compartment,[1]; after 10 minutes of sonophoresis,about 2%
same,glucose concentration in the reservoir after extraction,[2]; rat blood glucose 450 mg/dL,1 mg/dL
same,glucose concentration in the reservoir after extraction,[2]; rat blood glucose about 200 mg/dL,0.2 mg/dL
O [water],water permeability enhancement,"[3]; during sonophoresis, 20 KHz, 125 mW/cm^2, 100 msec pulses every second",100 fold
same,recovery of water permeability enhancement,[3]; [9],about 94 (±3) %
same,recovery of water permeability enhancement,[3]; within 15 hours after turning ultrasound OFF,98 (±1) %
erythropoeitin,dose deliverable from a transdermal patch by sonophoresis,[4],about 140 U/h
same,human skin permeability,[4],9.8×10^-6 (±40%) cm/h
insulin,transdermal insulin flux before ultrasound,[5]; before ultrasound turned ON,below the detection limit
same,insulin dose that could be delivered from a patch,"[5]; flux 100 mU/cm^2 /hr, patch area 100 cm^2",about 13 U/h
same,transdermal insulin flux after turning ultrasound OFF,[5]; three hours after turning ultrasound OFF,statistically insignificant
same,transdermal insulin flux,"[5]; ultrasound 20 KHz, 125 mW/cm^2, 10%, reached in about 1 hour, almost constant while ultrasound ON, donor 100 U/ml",about 100 mU/cm^2 /hr
same,transdermal insulin permeability without ultrasound,[5]; ultrasound intensity = 0 (FIG. 1B),impermeable
same,transdermal insulin flux after turning ultrasound OFF,[5]; [9],below our detection limit
same,dose deliverable from a transdermal patch by sonophoresis,"[4]; patch area 40 cm^2, donor 100 U/ml insulin, 3×10^7 γ-interferon, 3×10^5 U/ml erythropoeitin",about 12 U/h
same,human skin permeability,"[4]; ultrasound 20 KHz, 225 mW/cm^2, 100 msec pulses every second, first hour",3.3×10^-3 (±35%) cm/h
same,level of transdermally delivered human insulin in rat plasma,[6]; after 30 minutes of sonophoresis,77 (±28) picomolar
same,level of transdermally delivered human insulin in rat plasma,[6]; after 1 hour of sonophoresis,178 (±84) picomolar
same,blood glucose level upon 1 hour insulin-ultrasound treatment,"[7]; 20 KHz, 100 msec pulses every second, intensities 0 to 225 mW/cm^2",intensity dependent decrease
same,amount of insulin delivered,[7]; 10 minute ultrasound application,about 100 mU
same,amount of insulin delivered,[7]; 1 hour ultrasound exposure,about 1 U
same,blood glucose level after ultrasound exposure,"[7]; 10 minute exposure, 20 KHz",about 150 mg/dl
same,blood glucose level after ultrasound exposure,"[7]; 1 hour exposure, 20 KHz",about 30 mg/dl
same,subcutaneous insulin dose inducing a similar decrease in blood glucose level,[7]; sonophoresis 1 hour at 62.5 mW/cm^2,100 mU
same,subcutaneous insulin dose inducing a similar decrease in blood glucose level,[7]; sonophoresis 1 hour at 225 mW/cm^2,1 U
same,blood glucose level after insulin-ultrasound treatment,"[8]; diabetic hairless rats, from about 400 mg/dl, 225 mW/cm^2, 100 msec pulses every second",200 mg/dL
same,blood glucose level after insulin-ultrasound treatment,"[8]; diabetic rat, from 400 mg/dl, 125 mW/cm^2, 100 msec pulses every second",200 mg/dL
B1,dose deliverable from a transdermal patch by sonophoresis,[4],about 5×10^6 U/h
same,human skin permeability,[4],8×10^-4 (±22%) cm/h
